Measurements from article PMC8286840, “Identifying SARS-CoV-2 antiviral compounds by screening for small molecule inhibitors of Nsp3 papain-like protease” (Biochemical Journal, 2021).
Structures can show the parent of a compound that is named as a salt. Where two headings read alike, the source gives them in different places. Where a SMILES comes first, the peptide text is derived from it. The star is where a group is joined. Cbz = O=C(OCc1ccccc1)*

Tests used:
[1] = molecular target: T1, SARS-CoV-2 PLpro (nsp3 1564–1878) (Severe acute respiratory syndrome coronavirus 2, UniProt P0DTD1); test: biochemical; design: FRET-quenched peptide (Pro3) cleavage by PLpro, 10 min pre-incubation, slope over 20 min, normalised to no-compound control; settings: read-out: % of control remaining
[2] = molecular target: T1, SARS-CoV-2 PLpro (nsp3 1564–1878); test: biochemical; design: FRET-quenched peptide (Pro3) cleavage by PLpro, 10 min pre-incubation, slope over 20 min, normalised to no-compound control; settings: read-out: % of control remaining; remark: listed apart in the source

`CCn1cnc2c(Nc3cccc(Cl)c3)nc(N[C@@H]3CCCC[C@@H]3N)nc21` [CGP-74514A hydrochloride] gave a remaining activity at 1.25 µM ([1]; Well no.=268, low concentration screen) of 92.8% and a remaining activity at 3.75 µM ([2]; Well no.=268, high concentration screen) of 94.1%.
Work on `COc1ccc(-n2[nH]c3c(cnc4ccccc43)c2=O)cc1` [CGS 9895] yielded a remaining activity at 1.25 µM ([1]; Well no.=5590, low concentration screen) of 99.6% and a remaining activity at 3.75 µM ([2]; Well no.=5590, high concentration screen) of 96.5%.
`CCNC(=O)[C@H]1O[C@@H](n2cnc3c(N)nc(NCCc4ccc(CCC(=O)O)cc4)nc32)[C@H](O)[C@@H]1O` [CGS 21680 (Hydrochloride)] was tested, and the remaining activity at 1.25 µM ([1]; Well no.=7001, low concentration screen) was 99.7%, the remaining activity at 1.25 µM ([1]; Well no.=8417, low concentration screen) was 95.9% and the remaining activity at 3.75 µM ([2]; Well no.=7001, high concentration screen) was 95.1%. For the same compound, the remaining activity at 3.75 µM ([2]; Well no.=8417, high concentration screen) was 94.7%.
In the case of `CN1CCN(c2nc3cc(C(F)(F)F)ccc3n3cccc23)CC1` [CGS-12066A maleate], the remaining activity at 1.25 µM ([1]; Well no.=437, low concentration screen) is reported as 102% and the remaining activity at 3.75 µM ([2]; Well no.=437, high concentration screen) is reported as 101%.
`Nc1nc2ccc(Cl)cc2c2nc(-c3ccco3)nn12` [CGS-15943] was tested, and the remaining activity at 1.25 µM ([1]; Well no.=393, low concentration screen) was 104% and the remaining activity at 3.75 µM ([2]; Well no.=393, high concentration screen) was 104%.
For `CCNC(=O)[C@H]1O[C@@H](n2cnc3c(N)nc(NCCc4ccc(CCC(=O)O)cc4)nc32)[C@H](O)[C@@H]1O` [CGS-21680 hydrochloride], the remaining activity at 1.25 µM ([1]; Well no.=391, low concentration screen) was 105% and the remaining activity at 3.75 µM ([2]; Well no.=391, high concentration screen) was 99.7%.
`CS(=O)(=O)N1CCc2c(-c3cnc(N)nc3)nc(N3CCOCC3)nc21` [CH5132799] showed a remaining activity at 1.25 µM ([1]; Well no.=5348, low concentration screen) of 95.8% and a remaining activity at 3.75 µM ([2]; Well no.=5348, high concentration screen) of 96%.
For `NC(=O)CCCSc1nc(N)nc(-c2c(Cl)cc3c4c(cccc24)COC3)n1` [CH5138303], the remaining activity at 1.25 µM ([1]; Well no.=8668, low concentration screen) was 95% and the remaining activity at 3.75 µM ([2]; Well no.=8668, high concentration screen) was 90.8%.
`CCc1cc2c(cc1N1CCC(N3CCOCC3)CC1)C(C)(C)c1[nH]c3cc(C#N)ccc3c1C2=O` [CH5424802] gave a remaining activity at 1.25 µM ([1]; Well no.=5077, low concentration screen) of 104% and a remaining activity at 3.75 µM ([2]; Well no.=5077, high concentration screen) of 104%.
Work on `CC[C@H](C)[C@H](NC(=O)OCc1ccccc1)C(=O)N[C@@H](CCC(=O)O)C(=O)N1CCC[C@H]1C(=O)N[C@@H](Cc1ccccc1)C(=O)OC` [CH 5450] (Cbz-IEPF-OMe) yielded a remaining activity at 1.25 µM ([1]; Well no.=8516, low concentration screen) of 101% and a remaining activity at 3.75 µM ([2]; Well no.=8516, high concentration screen) of 102%.
Compound `Cc1ccccc1N=Nc1ccc(NC(=O)c2ccnn2C)c(C)c1` [CH-223191] has a remaining activity at 1.25 µM ([1]; Well no.=5835, low concentration screen) of 97.1%, a remaining activity at 1.25 µM ([1]; Well no.=7892, low concentration screen) of 99.1% and a remaining activity at 3.75 µM ([2]; Well no.=5835, high concentration screen) of 98.7%. It also gave a remaining activity at 3.75 µM ([2]; Well no.=7892, high concentration screen) of 95.5%.
`Cc1cnc(-c2cnc(NCCNc3ccc(C#N)cn3)nc2-c2ccc(Cl)cc2Cl)[nH]1` [CHIR99021] gave a remaining activity at 1.25 µM ([1]; Well no.=5511, low concentration screen) of 99.8% and a remaining activity at 3.75 µM ([2]; Well no.=5511, high concentration screen) of 101%.
In the case of `O=c1[nH]c2ccc(Cl)cc2c(N[C@@H]2CN3CCC2CC3)c1-c1nc2ccccc2[nH]1` [CHIR-124], the remaining activity at 1.25 µM ([1]; Well no.=5338, low concentration screen) is reported as 96.2% and the remaining activity at 3.75 µM ([2]; Well no.=5338, high concentration screen) is reported as 97.2%.
Compound `CN1CCN(c2ccc3nc(-c4c(N)c5c(F)cccc5[nH]c4=O)[nH]c3c2)CC1` [CHIR-258] has a remaining activity at 1.25 µM ([1]; Well no.=2757, low concentration screen) of 96.4% and a remaining activity at 3.75 µM ([2]; Well no.=2757, high concentration screen) of 95.3%.
For `Nc1nc(NCCNc2ncc(-n3ccnc3)c(-c3ccc(Cl)cc3Cl)n2)ccc1[N+](=O)[O-]` [CHIR-98014], the remaining activity at 1.25 µM ([1]; Well no.=5035, low concentration screen) was 101% and the remaining activity at 3.75 µM ([2]; Well no.=5035, high concentration screen) was 96.8%.
For `CC(=O)Nc1ccc(C(=O)Nc2ccccc2N)cc1` [CI994 (Tacedinaline)], the remaining activity at 1.25 µM ([1]; Well no.=5165, low concentration screen) was 103% and the remaining activity at 3.75 µM ([2]; Well no.=5165, high concentration screen) was 101%.
Compound `O=C(NOCC1CC1)c1ccc(F)c(F)c1Nc1ccc(I)cc1Cl` [CI-1040] has a remaining activity at 1.25 µM ([1]; Well no.=2741, low concentration screen) of 100% and a remaining activity at 3.75 µM ([2]; Well no.=2741, high concentration screen) of 102%.
`O=C1NCCCc2c1oc1ccc(O)cc21` [CID755673] gave a remaining activity at 1.25 µM ([1]; Well no.=6214, low concentration screen) of 104% and a remaining activity at 3.75 µM ([2]; Well no.=6214, high concentration screen) of 96%.
`Cc1cc2nc(NCCCO)n(CC(=O)c3cc(C(C)(C)C)c(O)c(C(C)(C)C)c3)c2cc1C` [CID2858522] showed a remaining activity at 1.25 µM ([1]; Well no.=5503, low concentration screen) of 104% and a remaining activity at 3.75 µM ([2]; Well no.=5503, high concentration screen) of 109%.
For `O=C(Nc1ccc(CN2CCOCC2)cc1)c1ccc(-c2cccc(Cl)c2)o1` [CID 2011756], the remaining activity at 1.25 µM ([1]; Well no.=6582, low concentration screen) was 97.3% and the remaining activity at 3.75 µM ([2]; Well no.=6582, high concentration screen) was 101%.
With `Cc1ccc(-c2n[nH]c3c2C(c2cccc(O)c2)N(c2ccc(C(=O)O)cc2)C3=O)cc1` (stereo not shown) [CID 16020046] the remaining activity at 1.25 µM ([1]; Well no.=7821, low concentration screen) was 96.2% and the remaining activity at 3.75 µM ([2]; Well no.=7821, high concentration screen) was 102%.
`O=S(=O)(c1ccc2c(c1)C(=NO)c1cc(S(=O)(=O)N3CCCCC3)ccc1-2)N1CCCCC1` [CIL56] gave a remaining activity at 1.25 µM ([1]; Well no.=6774, low concentration screen) of 98.2% and a remaining activity at 3.75 µM ([2]; Well no.=6774, high concentration screen) of 95.6%.
`C[C@H](NC(=O)c1cc(Cl)ccc1Oc1ccc(F)cc1)c1ccc(C(=O)O)cc1` [CJ-42794] was tested, and the remaining activity at 1.25 µM ([1]; Well no.=6222, low concentration screen) was 98% and the remaining activity at 3.75 µM ([2]; Well no.=6222, high concentration screen) was 94.2%.
`O=C1CSC(c2cccc(Br)c2)N1c1cc(Cl)ccc1O` (stereo not shown) [CK-548] gave a remaining activity at 1.25 µM ([1]; Well no.=6054, low concentration screen) of 97.5% and a remaining activity at 3.75 µM ([2]; Well no.=6054, high concentration screen) of 96.3%.
For `Cc1[nH]c2ccccc2c1CCNC(=O)c1cccs1` [CK-636], the remaining activity at 1.25 µM ([1]; Well no.=5636, low concentration screen) was 102% and the remaining activity at 3.75 µM ([2]; Well no.=5636, high concentration screen) was 100%.
In the case of `Cc1[nH]c2ccccc2c1CCNC(=O)c1ccccc1F` [CK-666], the remaining activity at 1.25 µM ([1]; Well no.=5720, low concentration screen) is reported as 95.1% and the remaining activity at 3.75 µM ([2]; Well no.=5720, high concentration screen) is reported as 95.4%.
With `C[C@H](Cc1ccc2c(c1)OC(C(=O)O)(C(=O)O)O2)NC[C@H](O)c1cccc(Cl)c1` [CL 316,243] the remaining activity at 1.25 µM ([1]; Well no.=276, low concentration screen) was 96.9% and the remaining activity at 3.75 µM ([2]; Well no.=276, high concentration screen) was 101%.
With `N#C[C@H]1[C@H](O)[C@@H](CO)O[C@H]1n1ccc(N)nc1=O` [CNDAC (hydrochloride)] the remaining activity at 1.25 µM ([1]; Well no.=7866, low concentration screen) was 91.6% and the remaining activity at 3.75 µM ([2]; Well no.=7866, high concentration screen) was 94.8%.
For `N#Cc1cc2nc(O)c(O)nc2cc1[N+](=O)[O-]` [CNQX disodium], the remaining activity at 1.25 µM ([1]; Well no.=681, low concentration screen) was 101% and the remaining activity at 3.75 µM ([2]; Well no.=681, high concentration screen) was 102%.
With `CCc1cccc(N(C)C(=N)Nc2cccc3ccccc23)c1` [CNS-1102] the remaining activity at 1.25 µM ([1]; Well no.=366, low concentration screen) was 99.2% and the remaining activity at 3.75 µM ([2]; Well no.=366, high concentration screen) was 100%.
Compound `S=C(N/N=C1\CCCc2cccnc21)N1CCN(c2ccccn2)CC1` [COTI-2] has a remaining activity at 1.25 µM ([1]; Well no.=6156, low concentration screen) of 109% and a remaining activity at 3.75 µM ([2]; Well no.=6156, high concentration screen) of 110%.
For `CCCCCCC(C)(C)c1ccc([C@@H]2C[C@H](O)CC[C@H]2CCCO)c(O)c1` [CP55940], the remaining activity at 1.25 µM [1] was 104% and the remaining activity at 3.75 µM [2] was 106%.
Compound `COCCOc1ccc2c(c1)ncn2-c1ccc2cccc(N3CCC(N)CC3)c2n1` [CP 673451] has a remaining activity at 1.25 µM ([1]; Well no.=5285, low concentration screen) of 97.9% and a remaining activity at 3.75 µM ([2]; Well no.=5285, high concentration screen) of 102%.
`C[C@@H]([C@@H](O)c1ccc(O)cc1)N1CCC(O)(c2ccccc2)CC1` [CP-101,606] gave a remaining activity at 1.25 µM ([1]; Well no.=5843, low concentration screen) of 94.8% and a remaining activity at 3.75 µM ([2]; Well no.=5843, high concentration screen) of 93.1%.
Compound `Nc1nc2ccc(Cl)cc2n2c(-c3ccccc3)nnc12` [CP-66713] has a remaining activity at 1.25 µM ([1]; Well no.=5624, low concentration screen) of 96.6% and a remaining activity at 3.75 µM ([2]; Well no.=5624, high concentration screen) of 96%.
`CN(C)C(=O)[C@H](O)[C@H](Cc1ccccc1)NC(=O)c1cc2cc(Cl)ccc2[nH]1` [CP-91149] gave a remaining activity at 1.25 µM ([1]; Well no.=5021, low concentration screen) of 101% and a remaining activity at 3.75 µM ([2]; Well no.=5021, high concentration screen) of 104%.
